Consider 6 molecules from patent publication US11325936B2, “Sialidase inhibitors and preparation thereof” (The Regents of the University of California, priority 2017, dated 2022).

In one experiment the target is T1, AuSialidase (Paenarthrobacter ureafaciens, UniProt Q5W7Q2).
T1 sequence (Q5W7Q2 39-990): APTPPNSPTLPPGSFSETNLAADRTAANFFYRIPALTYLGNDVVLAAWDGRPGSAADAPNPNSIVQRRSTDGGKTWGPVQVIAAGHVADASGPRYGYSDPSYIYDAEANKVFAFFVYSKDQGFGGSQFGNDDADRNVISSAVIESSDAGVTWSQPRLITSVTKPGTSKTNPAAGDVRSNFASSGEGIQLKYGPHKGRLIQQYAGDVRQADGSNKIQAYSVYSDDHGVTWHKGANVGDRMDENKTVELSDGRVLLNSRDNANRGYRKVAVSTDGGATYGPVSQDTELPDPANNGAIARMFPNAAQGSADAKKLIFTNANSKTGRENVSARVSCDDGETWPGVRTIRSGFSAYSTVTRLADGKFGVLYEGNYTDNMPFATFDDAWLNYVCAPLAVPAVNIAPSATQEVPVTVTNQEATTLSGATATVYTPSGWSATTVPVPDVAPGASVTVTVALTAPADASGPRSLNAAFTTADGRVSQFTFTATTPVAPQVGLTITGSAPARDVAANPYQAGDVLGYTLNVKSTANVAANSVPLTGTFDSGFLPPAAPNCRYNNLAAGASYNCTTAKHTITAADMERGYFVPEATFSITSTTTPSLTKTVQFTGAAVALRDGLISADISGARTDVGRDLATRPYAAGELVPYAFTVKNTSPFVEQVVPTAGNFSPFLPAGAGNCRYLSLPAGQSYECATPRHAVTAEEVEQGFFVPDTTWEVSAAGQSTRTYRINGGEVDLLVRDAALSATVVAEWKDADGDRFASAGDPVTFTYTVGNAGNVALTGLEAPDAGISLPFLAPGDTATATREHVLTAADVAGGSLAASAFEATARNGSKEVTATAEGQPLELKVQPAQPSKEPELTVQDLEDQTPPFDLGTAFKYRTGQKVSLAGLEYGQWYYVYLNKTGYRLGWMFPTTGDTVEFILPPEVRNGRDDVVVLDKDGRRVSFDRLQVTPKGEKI
Nature of the experiment: Sialidase inhibition assay (Example 4). The experiment is classed as biochemical, Arthrobacter ureafaciens. As to conditions: pH 5.5, read-out: Percentage inhibition (%) against AuSialidase, 0.1 mM of each inhibitor, substrate Neu5Acα2-3GalβpNP 0.3 mM. As to the method:
(§1) The assay conditions varied for different sialidases as described below: SpNanA (0.0015 μg), NaOAc buffer (100 mM, pH 6.0); SpNanB (0.003 μg), NaOAc buffer (100 mM, pH 6.0); SpNanC (0.02 μg), MES buffer (100 mM, pH 6.5); AuSialidase (1.0 mU), NaOAc buffer (100 mM, pH 5.5); CpNanI (2.0 mU), MES buffer (100 mM, pH 5.0); CpNanH (0.5 mU), MES buffer (100 mM, pH 5.0); VcSialidase (1.5 mU), NaCl (150 mM), CaCl2) (10 mM), NaOAc buffer (100 mM, pH 5.5); PmST1 (34.4 μg), NaOAc buffer (100 mM, pH 5.5); BiNanH2, NaOAc buffer (100 mM, pH 5.0); hNEU2 (22.0 μg), MES buffer (100 mM, pH 5.0). The reactions were incubated for 30 min at 37° C., and were stopped by adding CAPS buffer (N-cyclohexyl-3-aminopropane sulfonic acid, 40 μL, 0.5 M, pH 10.5). The amount of the para-nitrophenolate formed was determined by measuring the A405 nm Of the reaction mixtures using a microplate reader.
(§2) The percentage inhibitions were determined using a concentration of 0.1 mM of each inhibitor, with reactions without inhibitors as controls. […] The values of IC50 were calculated by the software Grafit 5.0.

The target in another experiment is SpNanB (Streptococcus pneumoniae serotype 4, UniProt Q54727, E68D/K536E/K577E/N393D/S59P). Nature of the experiment: Sialidase inhibition assay (Example 4). Type of experiment: biochemical. As to conditions: pH 6, read-out: Percentage inhibition (%) against SpNanB.
Chain of SpNanB (Q54727 30-697 S59P/E68D/N393D/K536E/K577E): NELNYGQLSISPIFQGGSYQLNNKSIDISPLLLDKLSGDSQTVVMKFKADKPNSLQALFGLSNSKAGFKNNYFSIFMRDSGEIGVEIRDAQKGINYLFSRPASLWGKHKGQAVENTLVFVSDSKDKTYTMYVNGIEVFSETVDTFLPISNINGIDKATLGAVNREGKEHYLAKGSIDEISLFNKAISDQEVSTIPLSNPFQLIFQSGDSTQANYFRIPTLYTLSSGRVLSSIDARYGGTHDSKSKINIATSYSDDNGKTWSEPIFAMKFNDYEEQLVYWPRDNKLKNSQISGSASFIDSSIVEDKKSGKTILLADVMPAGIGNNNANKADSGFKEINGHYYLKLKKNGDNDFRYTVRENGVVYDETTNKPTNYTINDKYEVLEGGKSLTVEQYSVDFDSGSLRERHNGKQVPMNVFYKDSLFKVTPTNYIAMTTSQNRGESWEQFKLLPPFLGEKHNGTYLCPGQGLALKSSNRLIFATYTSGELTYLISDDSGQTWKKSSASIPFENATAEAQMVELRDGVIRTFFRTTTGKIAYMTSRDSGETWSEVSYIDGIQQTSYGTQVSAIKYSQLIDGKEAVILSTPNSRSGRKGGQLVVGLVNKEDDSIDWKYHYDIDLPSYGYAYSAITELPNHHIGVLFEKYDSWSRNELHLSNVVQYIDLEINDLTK
The target in the next experiment is CpNanH (Clostridium perfringens, UniProt P10481). Kind of experiment: biochemical. As to conditions: pH 5.0; read-out: Percentage inhibition (%) against CpNanH.
Chain of CpNanH (P10481 whole entry, looked up): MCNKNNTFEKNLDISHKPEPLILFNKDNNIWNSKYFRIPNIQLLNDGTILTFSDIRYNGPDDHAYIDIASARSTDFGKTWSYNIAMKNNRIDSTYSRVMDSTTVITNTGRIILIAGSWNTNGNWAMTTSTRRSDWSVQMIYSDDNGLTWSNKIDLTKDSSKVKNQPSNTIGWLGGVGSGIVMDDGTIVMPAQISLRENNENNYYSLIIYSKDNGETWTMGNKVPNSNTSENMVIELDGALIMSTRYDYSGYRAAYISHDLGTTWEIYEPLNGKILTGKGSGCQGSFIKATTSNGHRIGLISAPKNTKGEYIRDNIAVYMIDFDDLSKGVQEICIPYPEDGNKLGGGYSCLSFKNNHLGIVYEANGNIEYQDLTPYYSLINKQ
The target of the next experiment is SpNanA (Streptococcus pneumoniae, UniProt P62575). Nature of the experiment: Sialidase inhibition assay (Example 4). As to conditions: for inhibition at 100 µM: pH 6, read-out: Percentage inhibition (%) against SpNanA, 0.1 mM of each inhibitor, substrate Neu5Acα2-3GalβpNP 0.3 mM, pH 6.0. The experiment is classed as biochemical.
Chain of SpNanA (P62575 54-1006): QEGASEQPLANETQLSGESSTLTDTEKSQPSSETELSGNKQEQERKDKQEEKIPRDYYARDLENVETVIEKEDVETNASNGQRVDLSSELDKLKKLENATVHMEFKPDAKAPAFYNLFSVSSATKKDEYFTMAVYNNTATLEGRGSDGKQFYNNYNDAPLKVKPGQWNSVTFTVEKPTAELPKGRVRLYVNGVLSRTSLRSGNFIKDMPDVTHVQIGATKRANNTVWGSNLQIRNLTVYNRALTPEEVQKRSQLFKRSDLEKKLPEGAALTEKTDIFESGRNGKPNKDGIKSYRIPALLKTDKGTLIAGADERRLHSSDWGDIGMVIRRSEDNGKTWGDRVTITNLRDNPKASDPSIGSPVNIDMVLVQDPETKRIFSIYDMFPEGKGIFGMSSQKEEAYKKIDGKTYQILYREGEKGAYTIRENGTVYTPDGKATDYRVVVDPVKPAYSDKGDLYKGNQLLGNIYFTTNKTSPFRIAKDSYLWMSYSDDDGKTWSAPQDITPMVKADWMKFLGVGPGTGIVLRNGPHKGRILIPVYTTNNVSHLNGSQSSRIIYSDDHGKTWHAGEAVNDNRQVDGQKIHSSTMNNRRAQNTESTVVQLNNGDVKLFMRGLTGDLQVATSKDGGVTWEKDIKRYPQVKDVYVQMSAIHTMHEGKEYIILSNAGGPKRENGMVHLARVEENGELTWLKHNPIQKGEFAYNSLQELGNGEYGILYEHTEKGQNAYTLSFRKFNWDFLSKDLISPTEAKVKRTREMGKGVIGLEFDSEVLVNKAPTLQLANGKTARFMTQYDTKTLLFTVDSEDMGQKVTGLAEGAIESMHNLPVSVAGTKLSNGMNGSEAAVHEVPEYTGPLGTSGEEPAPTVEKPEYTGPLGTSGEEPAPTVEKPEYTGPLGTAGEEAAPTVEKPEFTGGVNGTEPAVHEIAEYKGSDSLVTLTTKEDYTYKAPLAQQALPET
The target of the next experiment is PmST1 (Pasteurella multocida, UniProt Q15KI8). Kind of experiment: Sialidase inhibition assay (Example 4). Type of experiment: biochemical. As to conditions: 0.1 mM of each inhibitor; substrate Neu5Acα2-3GalβpNP 0.3 mM; pH 5.5; read-out: Percentage inhibition (%) against PmST1. As to the method:
as §1, §2

A further experiment concerns the target VcSialidase (Vibrio cholerae serotype O1, UniProt P0C6E9). Kind of experiment: biochemical. As to conditions: pH 5.5, read-out: Percentage inhibition (%) against VcSialidase, 0.1 mM of each inhibitor, substrate Neu5Acα2-3GalβpNP 0.3 mM.
In another experiment the target is hNEU2 (Homo sapiens, UniProt Q9Y3R4). Nature of the experiment: Sialidase inhibition assay (Example 4). The experiment is classed as biochemical. As to conditions: pH 5, 0.1 mM of each inhibitor, substrate Neu5Acα2-3GalβpNP 0.3 mM, read-out: Percentage inhibition (%) against hNEU2.
Chain of hNEU2 (Q9Y3R4 whole entry): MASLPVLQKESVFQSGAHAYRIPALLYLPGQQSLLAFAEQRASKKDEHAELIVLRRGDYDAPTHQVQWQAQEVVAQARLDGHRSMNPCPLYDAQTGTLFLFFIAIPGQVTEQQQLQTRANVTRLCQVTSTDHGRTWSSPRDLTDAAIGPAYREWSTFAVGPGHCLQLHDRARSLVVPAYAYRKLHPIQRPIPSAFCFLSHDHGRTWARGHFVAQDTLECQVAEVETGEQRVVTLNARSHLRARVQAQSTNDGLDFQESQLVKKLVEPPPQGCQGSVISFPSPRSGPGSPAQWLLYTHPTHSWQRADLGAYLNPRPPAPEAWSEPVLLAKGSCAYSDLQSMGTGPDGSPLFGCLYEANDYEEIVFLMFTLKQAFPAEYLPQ
The target in another experiment is SpNanC (Streptococcus pneumoniae, UniProt A0A0H2UQE4). Kind of experiment: Sialidase inhibition assay (Example 4). As to conditions: pH 6.5, read-out: Percentage inhibition (%) against SpNanC. Type of experiment: biochemical.
Chain of SpNanC (A0A0H2UQE4 entry or part of it): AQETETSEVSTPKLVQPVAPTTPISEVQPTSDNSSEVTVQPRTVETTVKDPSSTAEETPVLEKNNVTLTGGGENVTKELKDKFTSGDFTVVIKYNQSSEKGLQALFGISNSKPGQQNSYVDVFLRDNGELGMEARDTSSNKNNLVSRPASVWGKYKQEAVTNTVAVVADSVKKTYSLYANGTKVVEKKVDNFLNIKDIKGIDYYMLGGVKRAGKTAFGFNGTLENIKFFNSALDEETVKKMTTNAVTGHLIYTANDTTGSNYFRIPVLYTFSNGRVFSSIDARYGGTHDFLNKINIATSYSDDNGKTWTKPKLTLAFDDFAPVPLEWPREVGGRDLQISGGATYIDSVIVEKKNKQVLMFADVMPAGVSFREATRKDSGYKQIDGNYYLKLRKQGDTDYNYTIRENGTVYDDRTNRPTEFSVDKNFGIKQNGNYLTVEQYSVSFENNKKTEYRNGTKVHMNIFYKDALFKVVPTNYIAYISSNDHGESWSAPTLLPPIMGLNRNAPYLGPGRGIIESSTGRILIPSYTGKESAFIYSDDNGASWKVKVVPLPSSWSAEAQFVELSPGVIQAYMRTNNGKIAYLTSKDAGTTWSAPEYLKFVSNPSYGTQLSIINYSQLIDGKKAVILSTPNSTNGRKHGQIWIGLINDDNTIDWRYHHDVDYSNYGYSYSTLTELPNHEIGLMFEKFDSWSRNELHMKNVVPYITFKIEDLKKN
Another experiment concerns the target BiNanH2 (Bifidobacterium longum subsp. infantis, UniProt A0ACD7UU12). Nature of the experiment: Sialidase inhibition assay (Example 4). The experiment is classed as biochemical. As to conditions: pH 5, read-out: Percentage inhibition (%) against BiNanH2, 0.1 mM of each inhibitor, substrate Neu5Acα2-3GalβpNP 0.3 mM.
The next experiment deals with CpNanI. The experiment is classed as biochemical, Clostridium perfringens. As to conditions: 0.1 mM of each inhibitor; substrate Neu5Acα2-3GalβpNP 0.3 mM; pH 5.0.

Chain of VcSialidase (P0C6E9 25-781): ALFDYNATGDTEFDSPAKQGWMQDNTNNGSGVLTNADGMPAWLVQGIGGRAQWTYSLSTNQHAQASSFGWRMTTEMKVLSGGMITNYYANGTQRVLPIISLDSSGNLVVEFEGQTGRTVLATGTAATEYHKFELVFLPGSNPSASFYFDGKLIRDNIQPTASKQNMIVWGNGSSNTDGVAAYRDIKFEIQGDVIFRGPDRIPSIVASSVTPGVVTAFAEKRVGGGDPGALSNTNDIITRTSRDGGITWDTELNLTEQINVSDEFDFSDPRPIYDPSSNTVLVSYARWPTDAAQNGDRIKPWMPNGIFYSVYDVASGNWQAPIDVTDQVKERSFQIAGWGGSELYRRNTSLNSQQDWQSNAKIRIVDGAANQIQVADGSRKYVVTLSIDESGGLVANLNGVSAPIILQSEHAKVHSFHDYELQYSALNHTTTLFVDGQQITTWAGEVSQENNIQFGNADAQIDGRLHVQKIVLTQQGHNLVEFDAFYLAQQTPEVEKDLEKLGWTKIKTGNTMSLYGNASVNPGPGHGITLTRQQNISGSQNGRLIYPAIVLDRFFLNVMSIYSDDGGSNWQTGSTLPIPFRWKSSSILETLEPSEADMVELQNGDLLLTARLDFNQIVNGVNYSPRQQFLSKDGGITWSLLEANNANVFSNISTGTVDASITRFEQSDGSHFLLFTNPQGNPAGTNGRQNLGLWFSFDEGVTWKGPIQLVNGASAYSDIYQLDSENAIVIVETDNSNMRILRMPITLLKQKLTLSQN
Chain of PmST1 (Q15KI8 entry or part of it): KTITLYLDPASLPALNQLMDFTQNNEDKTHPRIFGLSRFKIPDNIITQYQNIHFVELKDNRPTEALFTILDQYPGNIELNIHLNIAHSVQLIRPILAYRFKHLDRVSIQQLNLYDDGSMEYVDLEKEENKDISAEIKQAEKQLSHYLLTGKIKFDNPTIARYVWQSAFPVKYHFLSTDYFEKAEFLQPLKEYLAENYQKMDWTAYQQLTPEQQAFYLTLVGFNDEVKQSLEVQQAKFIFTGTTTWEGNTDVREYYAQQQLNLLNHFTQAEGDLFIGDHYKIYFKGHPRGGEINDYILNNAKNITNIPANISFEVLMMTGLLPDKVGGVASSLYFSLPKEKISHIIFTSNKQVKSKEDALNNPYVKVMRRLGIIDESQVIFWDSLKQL
Chain of BiNanH2 (A0ACD7UU12 entry or part of it): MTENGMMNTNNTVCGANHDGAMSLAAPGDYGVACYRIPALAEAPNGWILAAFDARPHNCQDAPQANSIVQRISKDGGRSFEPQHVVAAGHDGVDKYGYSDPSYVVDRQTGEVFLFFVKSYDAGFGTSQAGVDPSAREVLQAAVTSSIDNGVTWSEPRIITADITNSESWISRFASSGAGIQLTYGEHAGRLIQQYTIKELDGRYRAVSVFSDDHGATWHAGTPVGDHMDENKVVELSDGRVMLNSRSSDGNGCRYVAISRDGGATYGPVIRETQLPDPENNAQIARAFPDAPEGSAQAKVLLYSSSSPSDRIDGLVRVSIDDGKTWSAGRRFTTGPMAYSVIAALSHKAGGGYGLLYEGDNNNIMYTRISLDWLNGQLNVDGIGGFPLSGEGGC

`CC(=O)N[C@@H]1C(O)C=C(C(=O)O)OC1[C@H](O)[C@H](O)CNC(=O)C1CC1` (stereo partly drawn) [compound 13, 5-Acetamido-2,6-anhydro-9-cyclopropylcarboxamido-3,5,9-trideoxy-D-glycero-D-galacto-non-2-enonic acid]: the inhibition at 100 µM at AuSialidase came out at 61%; on SpNanB it was 2%; on CpNanH, 7%; at SpNanA it was 91%; on PmST1, 3%; on VcSialidase, 40%. Also, the results for the inhibition at 100 µM at hNEU2, on SpNanC and at BiNanH2 were 17%, 16% and 78%, respectively. Moreover, on SpNanA, the 50% inhibitory concentration (IC50) came to 6.8 ± 0.2 µM. The “Percentage inhibition (%) against CpNanI” value in the experiment with CpNanI was 51%.

In the case of `O=C(CO)N[C@@H]1C(O)C=C(C(=O)O)OC1[C@H](O)[C@H](O)CO` (stereo partly drawn) [compound 7, 2,6-Anhydro-3,5-dideoxy-5-glycolylamido-D-glycero-D-galacto-non-2-enonic acid], the inhibition at 100 µM at AuSialidase was 47%; at SpNanB, 4%; on CpNanH, 9%; on SpNanA, 14%; on PmST1 it was 2%; on hNEU2, over 50%. Moreover, the values for the inhibition at 100 µM on SpNanC and at BiNanH2 were 17% and 19%, respectively. Moreover, the “Percentage inhibition (%) against CpNanI” value in the experiment on CpNanI came to 20%.

`O=C(Cc1ccccc1)N[C@H]1[C@H]([C@H](O)[C@H](O)CO)OC(C(=O)O)=C[C@@H]1O` [compound 15, 2,6-Anhydro-3,5-dideoxy-5-phenylacetamido-D-glycero-D-galacto-non-2-enonic acid]: the inhibition at 100 µM on AuSialidase stood at 13%; at SpNanB, 5%; at CpNanH it was 8%; at SpNanA it was 2%; on PmST1 it was 8%; on VcSialidase, 5%. In addition, the inhibition at 100 µM on hNEU2 is 81%; at SpNanC, 12%; at BiNanH2, 17%. The “Percentage inhibition (%) against CpNanI” value with CpNanI was 19%.

For the molecule `CCCCC(=O)NC[C@@H](O)[C@@H](O)[C@@H]1OC(C(=O)O)=C[C@H](O)[C@H]1NC(C)=O` [compound 12, 5-Acetamido-2,6-anhydro-3,5,9-trideoxy-9-valeramido-D-glycero-D-galacto-non-2-enonic acid], the inhibition at 100 µM at AuSialidase worked out at 40%; on SpNanB, 3%; at CpNanH it was 3%; at SpNanA, 85%; on PmST1 it was 8%; on VcSialidase it was 43%. Also, the inhibition at 100 µM was found to be 19% on hNEU2, 11% on SpNanC and 71% on BiNanH2. Also, half-maximal inhibition at SpNanA (IC50) was put at 10.5 ± 0.5 µM. For the same molecule, in the experiment on CpNanI, the “Percentage inhibition (%) against CpNanI” value turned out to be 40%.

For `CC(=O)NC[C@@H](O)[C@@H](O)[C@@H]1OC(C(=O)O)=C[C@H](O)[C@H]1NC(C)=O` [compound 9, 5,9-Diacetamido-2,6-anhydro-3,5,9-trideoxy-D-glycero-D-galacto-non-2-enonic acid], the inhibition at 100 µM on AuSialidase was 60%; on SpNanB it was 4%; at CpNanH, 1%; at SpNanA, 86%; on PmST1, 19%; at VcSialidase, 45%. The inhibition at 100 µM was found to be 27% on hNEU2, 8% on SpNanC and 69% at BiNanH2. Inhibition on SpNanA was half-maximal at 11 ± 0.2 µM (IC50). In the experiment on CpNanI, the “Percentage inhibition (%) against CpNanI” value worked out at 63%.

Take `CC(=O)N[C@@H]1C(O)C=C(C(=O)O)OC1C[C@H](O)CO` (stereo partly drawn) [compound 10, 5-Acetamido-2,6-anhydro-3,5,7-trideoxy-D-glycero-D-galacto-non-2-enonic acid]: the inhibition at 100 µM came out at 85% at AuSialidase; 2% at SpNanB; 11% on CpNanH; 89% on SpNanA; 15% on PmST1; 40% on VcSialidase. The inhibition at 100 µM at hNEU2 came to 42%; at SpNanC, 5%; on BiNanH2, 30%. For the same molecule, the half-inhibitory concentration (IC50) at SpNanA worked out at 10.7 ± 0.4 µM. Also, in the experiment on CpNanI, the “Percentage inhibition (%) against CpNanI” value is 57%.

What is called inhibition is the percentage by which the read-out fell short of the control. The IC50 is the midpoint of a concentration-inhibition curve.
